According to US9512178B2, “Neurogenic brain-derived neurotrophic factor peptides” (Research Foundation for Mental Hygiene, Inc., priority 2012, dated 2016):
“Also recorded” adds a separate entry of the source.

Assays:
TrkB receptor [1] = molecular target: T1, TrkB receptor (Homo sapiens, UniProt Q16620); experiment: Competition with BDNF for activation (pTrkB) of TrkB in NIH 3T3 cells stably expressing TrkB; type: cell-based; settings: 0.05 μM to 10 μM with BDNF 1 ng/ml (0.04 nM), 15 min; dose-dependent
T1 construct: host or cells: NIH 3T3 fibroblasts, G418 selection
T1 sequence (Q16620 32-822): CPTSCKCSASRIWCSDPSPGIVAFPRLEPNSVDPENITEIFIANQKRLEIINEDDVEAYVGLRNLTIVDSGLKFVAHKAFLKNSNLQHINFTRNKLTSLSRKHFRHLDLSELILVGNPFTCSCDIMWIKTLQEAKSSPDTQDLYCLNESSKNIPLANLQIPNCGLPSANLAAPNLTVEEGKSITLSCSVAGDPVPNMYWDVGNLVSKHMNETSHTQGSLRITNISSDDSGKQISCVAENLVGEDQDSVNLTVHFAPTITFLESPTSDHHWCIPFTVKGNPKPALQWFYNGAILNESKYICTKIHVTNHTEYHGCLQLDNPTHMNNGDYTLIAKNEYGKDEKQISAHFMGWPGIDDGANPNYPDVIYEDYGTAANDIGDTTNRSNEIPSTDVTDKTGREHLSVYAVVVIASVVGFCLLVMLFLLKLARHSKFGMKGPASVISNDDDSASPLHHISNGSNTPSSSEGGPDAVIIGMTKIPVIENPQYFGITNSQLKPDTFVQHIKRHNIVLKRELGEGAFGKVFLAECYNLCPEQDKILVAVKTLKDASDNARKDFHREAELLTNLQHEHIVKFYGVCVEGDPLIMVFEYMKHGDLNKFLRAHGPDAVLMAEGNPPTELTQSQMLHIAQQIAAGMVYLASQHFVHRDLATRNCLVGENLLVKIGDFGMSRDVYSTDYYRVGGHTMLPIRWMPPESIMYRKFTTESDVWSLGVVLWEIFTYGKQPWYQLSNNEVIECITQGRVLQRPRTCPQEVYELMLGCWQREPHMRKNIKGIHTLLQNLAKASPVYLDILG
Description: (§1) To study the activation of the TrkB receptor with BDNF and/or with the peptides, NIH 3T3 cells were used, stably transfected with the TrkB receptor (obtained from Montreal Neurological Institute, Montreal, Quábec, Canada). The cell culture medium used for this cell line was: DMEM-high glucose, 10 percent normal calf serum, 1 percent glutamax, 1 percent sodium pyruvate, 1 percent penicillin-streptomycin; supplemented with the selection antibiotic G418 in a final concentration of 100 μg/ml (to guaranty the stable expression of the Trkb transgene). All Medium components were purchase from Gibco Life Technologies, Invitrogen, Grand Island, N.Y., USA.
To evaluate a possible competitive role of the peptides in the activation of TrkB receptor by BDNF, a fibroblast (NIH 3T3) cell line stably expressing the TrkB receptor was used. Cells were vehicle-treated or treated with BDNF 1 ng/ml (0.04 nM) in the presence or absence of 0.05 μM to 10 μM B-5 or B-3 for 15 min (FIG. 7A). […] As observed in primary neuronal cultures (shown in FIGS. 5C and D), the treatment with the peptides alone for 15 min induced a weak but significant activation of TrkB receptor when compared to control (ANOVA, p<0.001).

TrkC = molecular target: T2, TrkC (Homo sapiens, UniProt Q16288); experiment: Trk phosphorylation and TrkC expression in TrkC stably-expressing NIH-3T3 cells; type: cell-based; settings: for expression of TrkC: 1 μM; for activation of TrkC receptor: peptides 1 μM
T2 construct: expressed in transfected cells; host or cells: NIH-3T3 fibroblasts
T2 sequence (Q16288 32-839, species assumed): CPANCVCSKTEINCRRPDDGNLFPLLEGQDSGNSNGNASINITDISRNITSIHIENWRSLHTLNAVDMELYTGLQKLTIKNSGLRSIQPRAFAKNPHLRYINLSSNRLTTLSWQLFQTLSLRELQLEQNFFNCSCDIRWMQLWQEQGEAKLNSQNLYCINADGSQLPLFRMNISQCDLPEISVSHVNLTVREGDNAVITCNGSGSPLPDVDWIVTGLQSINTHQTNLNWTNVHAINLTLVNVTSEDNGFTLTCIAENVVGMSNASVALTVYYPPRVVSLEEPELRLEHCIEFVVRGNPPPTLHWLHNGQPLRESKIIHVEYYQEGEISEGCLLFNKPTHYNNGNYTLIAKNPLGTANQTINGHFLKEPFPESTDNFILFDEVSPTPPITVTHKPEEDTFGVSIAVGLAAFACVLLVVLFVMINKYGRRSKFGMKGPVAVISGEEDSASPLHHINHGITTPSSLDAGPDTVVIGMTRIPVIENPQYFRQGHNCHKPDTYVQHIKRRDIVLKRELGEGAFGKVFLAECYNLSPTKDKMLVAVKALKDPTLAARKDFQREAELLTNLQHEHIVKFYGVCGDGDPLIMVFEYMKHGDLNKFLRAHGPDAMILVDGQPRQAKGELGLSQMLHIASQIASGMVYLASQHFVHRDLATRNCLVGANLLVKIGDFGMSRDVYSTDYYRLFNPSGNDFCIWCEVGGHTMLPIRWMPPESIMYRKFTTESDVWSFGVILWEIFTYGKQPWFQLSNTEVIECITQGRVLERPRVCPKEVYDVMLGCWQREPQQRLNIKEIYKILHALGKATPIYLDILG

BDNF = BDNF expression, Western blot, 5 days treatment; type: cell-based, mouse
Description: Following treatment in 6-well plates, cells were washed 2× in glucose buffered saline, GBS (5.4 mM KCl, 138 mM NaCl, 22 mM glucose, and 2 mM Na—KPO pH 7.2), and then lysed by 5 min incubation on ice in 100 or 150 μl of ice-cold RIPA buffer (PBS, 1% w/v NP-40 from Fisher Scientific, 0.1% w/v SDS, and 0.5% w/v sodium desoxycholate) containing 1 mM AEBSF (Gold Biotechnology, St. Louis, Mo., USA), 10 μg/ml aprotinin (Sigma-Aldrich, St. Louis, Mo., USA), and 20 μg/ml of leupeptin and pepstatin (US Biochemicals, Cleveland, Ohio, USA), and phosphatase inhibitors: NaF, Na orthovanadate, (3-glycerophosphate, and microcystein (Sigma-Aldrich, St. Louis, Mo., USA). Extracts were prepared by collecting and pooling a minimum of 2 wells by scraping, and lysates were centrifuged at 20,000×g for 10 min at 4° C. Protein concentration of each cell lysate was determined using the BCA kit (Thermo Scientific, Rockford, Ill., USA). The lysates (7.5-20 μg total protein) were separated on 10% SDS-PAGE gels (except for BDNF where 12% gels were employed) and transferred to 0.45 μm PVDF membrane (Pall, Pensacola, Fla., USA) for probing with antibodies as noted. Blots were blocked for 1 hr at 37° C. in 1×TBST (0.05% Tween 20 in TBS) containing 5% w/v blotting grade dry milk (Bio-rad, Hercules, Calif., USA), incubated in primary antibody overnight in blocking buffer at 4° C., washed 3×10 min in TBST at room temperature, followed by incubation with secondary antibody, i.e., peroxidase-conjugated anti-mouse or anti rabbit IgG (Jackson ImmunoResearch Laboratories, West Grove, Pa., USA) diluted in blocking buffer. Blots were washed 3×10 min in TBST and immunoreactive protein bands were visualized with enhanced chemiluminescence (ECL) reagents (Pierce, Rockford, Ill., USA). The ECL films of the blots were scanned and analyzed using Multi Gauge software version 3.0 (Fujifilm, Tokyo, Japan).
The following primary antibodies were used: rabbit polyclonal anti-NFM (1:1000; Chemicon/Millipore, Billerica, Mass., USA); mouse monoclonal anti-NeuN, clone A60 (1:500; Millipore, Billerica, Mass., USA); rabbit polyclonal anti-Tuj-1, (3—III-tubulin (Covance; 1:800, Emeryville, Calif., USA); mouse monoclonal SMI 52 to the adult isoforms of MAP-2, MAP2a,b (1:1000; Covance, Emeryvilly, Calif., USA); rabbit polyclonal anti-Synapsin I (1:2000; Stressgen, Farmingdale, N.Y., USA); rabbit monoclonal anti-PSD95 (1:1000; Cell signaling, Danvers, Mass., USA); anti tau 92e (1:10000); mouse monoclonal anti-BDNF (1:1000; Calbiochem, Gibbstown, N.J., USA); rabbit polyclonal anti-TrkB (total) (1:500; Santa Cruz Biotechnology, Santa Cruz, Calif., USA); rabbit polyclonal anti-pTrkB (Tyr706) (1:400; Santa Cruz Biotechnology, Santa Cruz, Calif., USA), TrkC (1:1000; Cruz Biotechnology, Santa Cruz, Calif., USA); and pTrkY490 (1:500; Upstate USA Inc., Charlottesville, Va., USA). For loading control, the blots were developed with rabbit polyclonal antibody to GAPDH (1:2000; Santa Cruz Biotechnology, Santa Cruz, Calif., USA).
To investigate the molecular mechanism by which the BDNF peptides promoted neurogenic/neurotrophic activities, the hippocampal primary cultured neurons were treated with the peptides or BDNF for five days and compared with the control medium treated cells.

TrkB receptor [2] = molecular target: T1, TrkB receptor; experiment: TrkB expression in TrkB stably-expressing NIH-3T3 fibroblasts, time course; type: cell-based; settings: 1 μM, 60 min
Description: as §1
The NIH 3T3 fibroblasts stably expressing the TrkB receptor were vehicle-treated or treated with BDNF peptides B-5 and B-3 at a concentration of 1 μM or with BDNF at a concentration of 20 ng/ml (0.79 nM) for 5, 15 or 60 min (FIG. 5E, F). […] The effect was time-dependent and was pronounced at 60 min treatment. […] The effect on the increase in expression of TrkB by Peptides B-5 and B-3 could be the way in which the peptides potentiate the BDNF pathway to avoid saturation of the receptors, and/or promote their neurotrophic effect by increasing the expressions of both BDNF (FIGS. 5A and 5B) and TrkB (FIGS. 5C through 5F).

[3] = test system: primary E18 hippocampal cells; experiment: Rescue of H2O2-induced neurotoxicity (LDH assay); type: cell-based, mouse
Description: Evaluation of cell death and cell viability was performed using the LDH kit (Promega, Madison Wis., USA), following manufactures instructions. Percentages of cell death and cell viability were plotted separately.
In order to evaluate the potential neuroprotective effect of BDNF peptides, the primary E18 hippocampal cells were challenged with 0, 60, 80 and 100 μM H2O2 for 6 hours, and then cells were washed with culture medium and fresh culture medium was added containing the peptides B-5 or B-3 or BDNF or BDNF plus B-3 (see FIGS. 4A and 4B). After 24 hours, the cell viability was assayed by the LDH method.

[4] = 80 μM H2O2 6 h, then treatment 24 h

Substance | competitive inhibition of the activation of TrkB receptor by BDNF (TrkB receptor [1]) | expression of TrkC (TrkC) | activation of TrkC receptor (TrkC) | expression of BDNF (Western blot) (BDNF; 0.1 μM) | expression of BDNF (Western blot) (BDNF; 1 μM) | expression of BDNF (Western blot) (BDNF; vs control medium) | expression of the receptor TrkB (TrkB receptor [2]) | cell viability (LDH) ([3]; 60 μM H2O2 6 h, then treatment 24 h) | cell death (LDH) [3, 4] | cell viability (LDH) [3, 4] | potentiation of the neuroprotective effect of BDNF ([3]; after H2O2 exposure, combined with BDNF) | neuroprotective effect of the peptide alone ([3]; after H2O2 exposure, without BDNF)
Ac-I-K-R-G-CONH2 [Peptide B-5] | significant competitive inhibition | neither BDNF (20 ng/mL) nor peptides B-5 (1 μM) and B-3 (1 μM) were able to modify the expression of TrkC | neither the peptides nor BDNF were able to activate this receptor | strongest induction | lost | induced the expression of BDNF | marked increase | significantly increased the cell viability | significantly reduced cell death; also recorded: moderate effect in reducing the percentage of cell death | significantly increased the cell viability | – | –
Ac-S-KKR-CONH2 [Peptide B-3] | significant competitive inhibition | neither BDNF (20 ng/mL) nor peptides B-5 (1 μM) and B-3 (1 μM) were able to modify the expression of TrkC | neither the peptides nor BDNF were able to activate this receptor | not at 0.1 μM | induced an increase | induced the expression of BDNF | marked increase | – | – | – | significantly potentiated; also recorded: potentiates the neuroprotective effect of BDNF | not sufficient to exert a significant effect
